Read-outs that look alike come from different tables or passages of the source.
Columns and labels:
[1] = Intravenous pharmacokinetic study in rats; format: in vivo
Method: The rats were fasted overnight before the experiment and anesthetized using an intramuscular injection of zoletil at 20 mg/kg. The femoral artery and vein were cannulated with a polyethylene tube (Clay Adams, Parsippany, NJ, USA). Acacetin (dissolved in a vehicle composed of DMSO, ethanol, and PEG400 (10:5:85, v/v/v)) was administered intravenously (10 mg/kg) or orally (100 mg/kg) to rats. Approximately 250 μL of blood was collected via the femoral artery at 0, 2, 5, 15, 30, 45, 60, 120, and 180 min after intravenous administration and at 0, 2, 5, 15, 30, 45, 60, 90, 120, and 180 min after oral administration. The cannula was flushed with heparin (20 IU/mL in saline) at each time point to prevent blood clotting. Following centrifugation of the blood sample at 8000× g and 4 °C for 2 min, 120 μL of plasma was obtained. Urine was collected at 1-h intervals in an ice-cold container over 24 h. After urine collection at 24 h, each rat was sacrificed by cervical dislocation; the entire GI tract (including its contents and feces) was excised, transferred into a beaker containing 100 mL methanol, and cut into small pieces using scissors. After manual stirring with a glass rod for 1 min, a 50-μL aliquot of the supernatant was collected. The plasma, urine (Ae24h), and GI tract (GI24h) samples were stored at −80 °C until further LC-MS/MS analysis. A noncompartmental analysis (WinNonlin ver. 3.1; Certara USA Inc., Princeton, NJ, USA) was performed to determine the following pharmacokinetic parameters: the AUCinf, area under plasma concentration versus time curve from time zero to the last sampling time (AUClast), t1/2, total body clearance (CL), apparent volume of distribution at steady state (Vss), and absolute oral bioavailability (F). The Cmax and time to reach Cmax (Tmax) were directly obtained from the plasma concentration versus time data.

[2] = Unbound fraction by rapid equilibrium dialysis; format: in vitro ADME, rat
Method: The fractions of unbound acacetin in plasma (fuP), microsomes (fuMIC), SGF (fuSGF), and SIF(fuSIF) were measured using a rapid equilibrium dialysis device (Thermo Fisher Scientific, Inc., Waltham, MA, USA) as previously described with slight modifications. Briefly, 0.2 mL of the matrix spiked with acacetin (10 μM) was placed into the “sample” chamber, and 0.4 mL of PBS was placed into the adjacent “buffer” chamber. The fractions of unbound acacetin were calculated as the concentration ratio between the two chambers. The blood-to-plasma concentration ratio (RB) of acacetin was determined as described previously. Briefly, 1-mL blood spiked with acacetin (1 μM) was incubated at 37 °C for 30 min. The blood sample was centrifuged at 2000× g for 5 min to prepare the plasma sample. The concentrations of acacetin in the aforementioned plasma and buffer samples were measured using the LC-MS/MS method.

Urinary and GI (including biliary) excretion of unchanged acacetin ([1]; IV 10 mg/kg): 1.5–12.8 % of dose
GI24h ([1]; IV 10 mg/kg, GI tract at 24 h): 6.66 ± 5.34 % of dose
Ae24h ([1]; IV 10 mg/kg, urine 24 h): 2.50 ± 1.15 % of dose
clearance ([1]; Sprague-Dawley, rat, blood (plasma CL divided by RB), IV 10 mg/kg, read-out: Total blood clearance (CL/RB)): 191 ± 34 mL/min/kg
clearance ([1]; rat, IV 10 mg/kg, total plasma clearance, read-out: CL): 199 ± 36 mL/min/kg
AUC(0-inf) ([1]; rat, plasma, IV 10 mg/kg): 855 ng·h/mL
half-life ([1]; rat, plasma, IV 10 mg/kg): 40.3 ± 7.2 min
Vd ([1]; rat, plasma, IV 10 mg/kg, read-out: Vss): 2.22 ± 0.507 L/kg
Hepatic extraction ratio ([1]; speculated from blood clearance vs hepatic blood flow): ~1
fraction unbound at 10 μM ([2]; SGF, 10 μM, read-out: fuSGF (fraction unbound in SGF)): 0.822 ± 0.026
fraction unbound at 10 μM ([2]; SIF, 10 μM, read-out: fuSIF (fraction unbound in SIF)): 0.714 ± 0.009
fraction unbound at 10 μM ([2]; Sprague-Dawley, rat, liver microsomes (RLM), RLM, 10 μM, read-out: fuMIC (fraction unbound in microsomes)): 0.302 ± 0.021
fraction unbound at 10 μM ([2]; Sprague-Dawley, rat, plasma and liver microsomes (RLM), range over plasma and RLM, read-out: Unbound fraction in plasma and RLM): 0.00901 to 0.317
fraction unbound at 10 μM ([2]; Sprague-Dawley, rat plasma, 10 μM, read-out: fuP (fraction unbound in plasma)): 0.0102 ± 0.0011
fraction unbound at 10 μM ([2]; range over SGF and SIF, read-out: Unbound fraction in SGF and SIF): 0.707 to 0.849
SMILES: COc1ccc(-c2cc(=O)c3c(O)cc(O)cc3o2)cc1 [acacetin, Acacetin]
